This note sets out measurements from patent EP0444546B1, “Hydantoin derivatives for use as hypoglycemic and/or hypolipidemic agents” (MOCHIDA PHARMACEUTICAL CO., LTD., priority 1990, dated 1991).

Data set [1] deals with streptozotocin-diabetic rats. The experiment in a line: Ketone body lowering effects in streptozotocin-diabetic rats. Format: in vivo. The note with it: STZ-diabetic rats; for Lowering rate of serum total ketone body (%): 100 mg/kg orally for 2 weeks, blood 6 hrs after the last administration. The protocol: (§1) Diabetic rats were produced according to the method of Junod et al. (A. Junod et al., J. Clin. Invest., 48, 2129 (1969)). Briefly, male Wistar rats were given 26.5 mg/kg of streptozotocin (STZ) intravenously. Four days later, the rats with serum glucose levels of between 400 and 500 mg/dl were used. After being fasted for 4 hrs, groups of 5 diabetic rats were orally administered with the compounds of the present invention or gliclazide in a dose of 100 mg/kg. Blood samples were collected from the orbital vein before and 6 hrs after the administration. Serum glucose levels were determined by the enzymatic methods with an autoanalyzer (Cobas Fara ® , Roche).
(§2) Diabetic rats were produced according to the method described previously. Groups of 5 diabetic rats were orally administered with compound 20 or 23 of the present invention for 2 weeks. The rats were deprived of food 4 hrs before the last administration, and 6 hrs after the last administration, blood samples were collected from the orbital vein. Serum total ketone body (KB) levels were determined by the enzymatic method with an autoanalyzer (Cobas Fara ® , Roche). In this experiment, serum total ketone body levels in streptozotocin - diabetic rats increased by 92 % of normal rats in the mean value.

The subject of data set [2] is streptozotocin - diabetic rats. The experiment in a line: Hypolipidemic effects in streptozotocin-diabetic rats. Format: in vivo. The note with it: STZ-diabetic rats; for Lowering rate of serum lipids (%) CHOL / Lowering rate of serum lipids (%) NEFA / Lowering rate of serum lipids (%) TG: 100 mg/kg orally for 2 weeks; for Lowering rate of serum lipids (%) CHOL: serum cholesterol 6 hrs after the last administration; for Lowering rate of serum lipids (%) NEFA: serum non-esterified fatty acid 6 hrs after the last administration; for Lowering rate of serum lipids (%) TG: serum triglyceride 6 hrs after the last administration. The protocol: as §1
as §2, with “invention at a dose of 100 mg/kg” for “invention”, “triglyceride (TG), non - esterified fatty acid (NEFA) and cholesterol (CHOL)” for “total ketone body (KB)”, “experiment, each parameters of” for “experiment,”, “lipids” for “total ketone body levels”, “40” for “92”

A further data set relates to ICR strain mice. The experiment in a line: Acute toxicity in mice. Format: in vivo. The note with it: oral dose of 1 g/kg, one-week period after the administration. The source says: Hydantoin derivatives of the present invention were examined for acute toxicity.
The next data set concerns normal rats. Kind of data set: Hypoglycemic effects in normal rats. The format is in vivo, male Wistar rats. How it is done: Groups of 5 male Wistar rats, after being fasted for 4 hrs, were orally administered with compound 20 or 23 of the present invention or gliclazide. Blood samples were collected from the orbital vein before, 1 hr and 6 hrs after the administration. Serum glucose levels were determined by the enzymatic method with an autoanalyser (Cobas Fara ® , Roche).

In data set [3] the test system is streptozotocin-diabetic rats. The experiment in a line: Hypoglycemic effects in streptozotocin-diabetic rats. The format is in vivo, male Wistar rats. The protocol:
Four days later, the rats with serum glucose levels of between 400 and 500 mg/dl were used. After being fasted for 4 hrs, groups of 5 diabetic rats were orally administered with the compounds of the present invention or gliclazide in a dose of 100 mg/kg. Blood samples were collected from the orbital vein before and 6 hrs after the administration. Serum glucose levels were determined by the enzymatic methods with an autoanalyzer (Cobas Fara ® , Roche).

Setting [4] is: 100 mg/kg p.o., 1 hour after administration.
[5] abbreviates: 100 mg/kg p.o., 6 hours after administration.

Entries after “also recorded” stand apart in the source; their conditions may differ.

With `O=C1CN(S(=O)(=O)c2oc3ccccc3c2Br)C(=O)N1` [Compound 20, 1-(3-bromobenzo[b]furan-2-ylsulfonyl)hydantoin], in data set [1], the “lowering of serum total ketone body levels (in words)” value is reported as “lowering activity” and the “Lowering rate of serum total ketone body (%)” value stood at 50%. Also, in data set [2], the “lowering of serum triglyceride, non - esterified fatty acid and cholesterol levels (in words)” value was “lowering activities”; the “Lowering rate of serum lipids (%) CHOL” value worked out at 31%; the “Lowering rate of serum lipids (%) NEFA” value is given as 35%; the “Lowering rate of serum lipids (%) TG” value was 36%. Also, the acute toxicity entry with ICR strain mice is “no change was observed”. Moreover, the “influence on serum glucose level of normal rats (in words)” value (shortened to “influence on serum glucose level”) in the data set on normal rats is recorded as “lesser influences”. Also, the “Lowering rate of serum glucose (%)” value with normal rats (setting [4]) was found to be 13%. The “Lowering rate of serum glucose (%)” value in the data set on normal rats (setting [5]) stood at 6%.
With `O=C1CN(S(=O)(=O)c2cc3ccc(Cl)cc3cc2Cl)C(=O)N1` [Compound 2, 1-(3,6-dichloronaphthalen-2-ylsulfonyl)hydantoin], the acute toxicity entry with ICR strain mice was “no change was observed”.
Same read-out and setting: under `O=C1CN(S(=O)(=O)c2cc3ccccc3o2)C(=O)N1` [Compound 9, 1-(benzo[b]furan-2-ylsulfonyl)hydantoin] stands “no change was observed”.
Consider `O=C1CN(S(=O)(=O)c2oc3ccccc3c2Cl)C(=O)N1` [Compound 23, 1-(3-chlorobenzo[b]furan-2-ylsulfonyl)hydantoin], for which, in data set [1], the “lowering of serum total ketone body levels (in words)” value is “lowering activity” and the “Lowering rate of serum total ketone body (%)” value stood at 43%. For the same compound, in data set [2], the “lowering of serum triglyceride, non - esterified fatty acid and cholesterol levels (in words)” value is recorded as “lowering activities”; the “Lowering rate of serum lipids (%) CHOL” value is given as 30%; the “Lowering rate of serum lipids (%) NEFA” value came to 18%; the “Lowering rate of serum lipids (%) TG” value stood at 43%. Further, the acute toxicity entry in the data set with ICR strain mice is “no change was observed”. Moreover, in the data set with normal rats, the “influence on serum glucose level” value is recorded as “lesser influences”. Also, the “Lowering rate of serum glucose (%)” value with normal rats (setting [4]) is 9%. In the data set on normal rats (setting [5]), the “Lowering rate of serum glucose (%)” value is on record as 0%.
On to `Cc1ccc(S(=O)(=O)NC(=O)NN2CC3CCCC3C2)cc1` (centres unmarked) [Compound A, gliclazide, reference compound], for which the “hypoglycemic activity (in words)” value in data set [3] (STZ-diabetic rats / experimental animal model of diabetes mellitus) was “less potent hypoglycemic activity than all compounds of the present invention”. Also, the “influence on serum glucose level” value with normal rats is given as “significantly lowered; also recorded: remarkable hypoglycemic activity”. Further, the “Lowering rate of serum glucose (%)” value worked out at 57% in the data set with normal rats (10 mg/kg p.o., 1 hour after administration) and 1% with normal rats (10 mg/kg p.o., 6 hours after administration).
With `O=C1CN(S(=O)(=O)c2cc3ccccc3s2)C(=O)N1` [Compound 8, 1-(benzo[b]thien-2-ylsulfonyl)hydantoin], the acute toxicity entry in the data set on ICR strain mice is reported as “no change was observed”.
On to “1-(benzo[b]isothiazol-3-ylsulfonyl)hydantoin [Compound 15]”, for which the “Lowering rate of serum glucose (%)” value in data set [3] (STZ-diabetic rats fasted 4 hrs, 100 mg/kg orally, 6 hrs after administration vs before) is given as 23.6%.
For the compound `O=C1CN(S(=O)(=O)c2cc(Cl)sc2Cl)C(=O)N1` [Compound 16, 1-(2,5-dichlorothien-3-ylsulfonyl)hydantoin], the acute toxicity result in the data set with ICR strain mice is “no change was observed”.
